In ChEMBL document CHEMBL4715889, “Novel amide and imidazole compounds as potent hematopoietic prostaglandin D synthase inhibitors” (Bioorg Med Chem Lett, 2021):
≈ marks a conversion by molar mass, not a printed value.

What was measured:
[1] = target: T1, Hematopoietic prostaglandin D synthase (Homo sapiens, UniProt O60760); test: Competitive inhibition of human HPGDS using PGH2 as substrate
[2] = target: T1, Hematopoietic prostaglandin D synthase; test: Inhibition of HPGDS (unknown origin) by fluorescence polarization assay
[3] = target: T1, Hematopoietic prostaglandin D synthase; test: Binding affinity to HPGDS (unknown origin) assessed as change in melting temperature by thermal shift assay
[4] = target: T1, Hematopoietic prostaglandin D synthase; test: Binding affinity to HPGDS (unknown origin) assessed as change in melting temperature in presence of GSH by thermal shift assay
[5] = target: T1, Hematopoietic prostaglandin D synthase; test: Inhibition of HPGDS (unknown origin) assessed as reduction in reduction in GSTase activity relative to control; design: concentration or dose not given beside the values; conditions: concentration not given here
[6] = target: T1, Hematopoietic prostaglandin D synthase; test: Inhibition of HPGDS (unknown origin) assessed as reduction in reduction in LPS-induced PGD2 level by ELISA
[7] = Aqueous solubility of compound at pH 7.4; format: physicochemical
[8] = Half life in human liver microsomes; format: ADME, Microsome

T1 sequence (O60760 whole entry): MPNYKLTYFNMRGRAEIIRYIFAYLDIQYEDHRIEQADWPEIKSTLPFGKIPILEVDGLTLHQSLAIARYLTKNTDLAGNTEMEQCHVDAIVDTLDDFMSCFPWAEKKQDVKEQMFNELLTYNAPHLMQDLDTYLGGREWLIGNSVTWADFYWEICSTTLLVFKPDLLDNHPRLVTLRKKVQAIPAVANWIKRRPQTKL

SMILES	Ki [1]	IC50 [2]	ΔTm [3]	ΔTm [4]	inhibition [5]	IC50 [6]	solubility [7]	half-life [8]
c1ccc(C(OC2CCN(CCCc3nnn[nH]3)CC2)c2ccccc2)cc1	5000 nM							
CC(C)(O)c1nc(-c2cccc(-c3ncc(-c4ccc(-c5ccccc5)nc4)[nH]3)c2)no1		35.4 nM	4.3 °C	5.2 °C	83.5%	72 nM		
CC(C)(O)c1nc(-c2cccc(CNC(=O)c3cnc(-c4ccccn4)nc3)c2)no1		7.48 nM	0.5 °C	5.1 °C	90.9%	11.6 nM		
Cc1nc(-c2ccccc2)[nH]c1-c1cnc(-c2ccccc2)nc1		30.8 nM	4.3 °C	4.5 °C	81.5%	3740 nM		
CC(C)(O)c1nc(-c2cccc(CNC(=O)c3cnc(-c4ccccc4)nc3)c2)no1		7.18 nM	0.4 °C	4.95 °C	83.9%	9.86 nM		
c1ccc(-c2ncc(-c3cnc(-c4ccccc4)[nH]3)cn2)cc1		8.88 nM	3.6 °C	3.8 °C	94.5%	59 nM		
CC(C)(O)c1nc(-c2cccc(-c3ncc(-c4ccc(-c5ccccn5)nc4)[nH]3)c2)no1		78.6 nM	4.8 °C	5.4 °C	76.1%	23.4 nM		
CC(C)(O)c1nc(-c2cccc(CNC(=O)c3ccc(-c4ccccc4)nc3)c2)no1		27.7 nM	0.2 °C	3.3 °C	62.4%	808 nM		
CC(C)(O)c1nc(-c2cccc(-c3ncc(-c4cnc(-c5ccccc5)nc4)[nH]3)c2)no1		5.88 nM	6.9 °C	7.1 °C	92.1%	20.7 nM	3.3 µM (≈ 1.4 µg/mL)	> 1 h

Further compounds by falling IC50 [2], results first:

Ki [1]	IC50 [2]	ΔTm [3]	ΔTm [4]	inhibition [5]	IC50 [6]	solubility [7]	half-life [8]	SMILES
	3200 nM	0.4 °C	0.6 °C	25.5%		17.5 µM (≈ 7.45 µg/mL)		CC(C)(O)c1nc(-c2cccc(-c3ncc(-c4cnc(-c5ccccn5)nc4)[nH]3)c2)no1
	1770 nM	0.2 °C	0.6 °C	18.2%	5060 nM			c1ccc(-c2ncc(-c3cnc(-c4ccccn4)nc3)[nH]2)cc1
	257 nM	2.1 °C	2.2 °C	29.5%	> 5000 nM			c1ccc(-c2ncc(-c3cnc(-c4cccnc4)s3)cn2)cc1
	122 nM	0.3 °C	3 °C	40.4%	1230 nM			O=C(NCc1ccccc1)c1ccc(-c2ccccc2)nc1
	80.7 nM	0.1 °C	2.8 °C	19.2%	453 nM			O=C(NCc1ccccc1)c1ccc(-c2ccccn2)nc1
	63.1 nM	3.1 °C	3.4 °C	38.4%	723 nM			Cn1c(-c2cnc(-c3ccccc3)nc2)cnc1-c1ccccc1
	55.5 nM	0.1 °C	2.8 °C	47.2%	328 nM			CC(C)(O)c1nc(-c2cccc(CNC(=O)c3ccc(-c4ccccn4)nc3)c2)no1
	37.2 nM	4.2 °C	5.2 °C	73.5%	44.5 nM			c1ccc(-c2ncc(-c3ccc(-c4ccccn4)nc3)[nH]2)cc1
	31.6 nM	3.2 °C	4.4 °C	85.2%	40.5 nM			c1ccc(-c2ccc(-c3cnc(-c4ccccc4)[nH]3)cn2)cc1
	13.2 nM	4.9 °C	5.7 °C	65.1%	12.5 nM			c1ccc(-c2ncc(-c3cnc(-c4cccnc4)[nH]3)cn2)cc1
	11.7 nM	0.4 °C	4.6 °C	82.5%	23.9 nM			O=C(NCc1ccccc1)c1cnc(-c2ccccc2)nc1
	7.14 nM	0.2 °C	4.2 °C	71.3%	35.7 nM			O=C(NCc1ccccc1)c1cnc(-c2ccccn2)nc1
